Measured values taken from ChEMBL document CHEMBL1201862, “PubChem BioAssay data set” (2004).
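All cell lines were grown in 96-well plates and treated with compound for 48 hours. GI50 is the concentration that inhibits growth by half.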 Calls of active or inactive are those of the source. No stated cut-off is given here; in the data, active = GI50 up to about 1.1 µM and inactive = higher.

Legend:
Assay in all cases: NCI-60 cell line screen, 48 h
786-0 = system: 786-0
A549 = system: A549
HCC 2998 = system: HCC 2998
HCT-116 = system: HCT-116
HCT-15 = system: HCT-15
HL-60 = system: HL-60
M14 = system: M14
OVCAR-3 = system: OVCAR-3
OVCAR-8 = system: OVCAR-8
SNB-19 = system: SNB-19
SW-620 = system: SW-620
UACC-257 = system: UACC-257
UACC-62 = system: UACC-62
HOP-92 = system: HOP-92
HT-29 = system: HT-29
NCI-H23 = system: NCI-H23
OVCAR-5 = system: OVCAR-5
LOX IMVI = system: LOX IMVI

SMILES: Nc1ccn([C@@H]2C[C@H](CO)[C@@H](O)[C@H]2O)c(=O)n1
- GI50 (786-0): > 57.7 µM (inactive)
- GI50 (A549): > 57.7 µM (inactive)
- GI50 (HCC 2998): > 57.7 µM (inactive)
- GI50 (HCT-116): > 57.7 µM (inactive)
- GI50 (HCT-15): > 57.7 µM
- GI50 (HL-60): > 57.7 µM (inactive)
- GI50 (M14): > 57.7 µM (inactive)
- GI50 (OVCAR-3): > 57.7 µM (inactive)
- GI50 (OVCAR-8): > 57.7 µM (inactive)
- GI50 (SNB-19): > 57.7 µM (inactive)
- GI50 (SW-620): > 57.7 µM (inactive)
- GI50 (UACC-257): > 57.7 µM (inactive)
- GI50 (UACC-62): > 57.7 µM (inactive)

SMILES: Cc1cccc2c1N(C(=O)/C=C\C(=O)O)C(c1c(C)[nH]c3ccccc13)C2 (stereo unspecified)
- GI50 (786-0): 40.8 µM (inactive)
- GI50 (A549): > 100 µM (inactive)
- GI50 (HCC 2998): 18.5 µM (inactive)
- GI50 (HCT-116): 23.2 µM (inactive)
- GI50 (HL-60): 20.7 µM (inactive)
- GI50 (HOP-92): 22.5 µM (inactive)
- GI50 (HT-29): > 100 µM (inactive)
- GI50 (M14): 55.1 µM (inactive)
- GI50 (NCI-H23): 43.8 µM (inactive)
- GI50 (OVCAR-3): > 10 µM (inactive)
- GI50 (OVCAR-5): > 100 µM (inactive)
- GI50 (OVCAR-8): 55.6 µM (inactive)
- GI50 (SNB-19): 36.2 µM (inactive)
- GI50 (SW-620): 28.4 µM (inactive)
- GI50 (UACC-257): 33.8 µM (inactive)
- GI50 (UACC-62): 18.9 µM (inactive)

SMILES: COc1ccc(OC)c2[s+]snc12
- GI50 (786-0): > 100 µM (inactive)
- GI50 (A549): 40.1 µM (inactive)
- GI50 (HCC 2998): > 100 µM (inactive)
- GI50 (HCT-116): 57.7 µM (inactive)
- GI50 (HL-60): 33.3 µM (inactive)
- GI50 (HT-29): > 100 µM (inactive)
- GI50 (LOX IMVI): 35.6 µM (inactive)
- GI50 (M14): 63.2 µM (inactive)
- GI50 (NCI-H23): 75.2 µM (inactive)
- GI50 (OVCAR-3): 34.4 µM (inactive)
- GI50 (OVCAR-5): > 100 µM (inactive)
- GI50 (OVCAR-8): 31.7 µM (inactive)
- GI50 (SNB-19): 65.8 µM (inactive)
- GI50 (SW-620): 68.2 µM (inactive)
- GI50 (UACC-257): 27.1 µM (inactive)
- GI50 (UACC-62): 26.6 µM (inactive)

SMILES: CC1CCSC(N(C(=O)N(C)c2ccccc2)c2ccccc2)=N1 (stereo unspecified)
- GI50 (786-0): > 100 µM (inactive)
- GI50 (A549): > 100 µM (inactive)
- GI50 (HCC 2998): > 100 µM (inactive)
- GI50 (HCT-116): > 100 µM (inactive)
- GI50 (HCT-15): > 100 µM
- GI50 (HL-60): > 100 µM (inactive)
- GI50 (HT-29): > 100 µM (inactive)
- GI50 (LOX IMVI): > 100 µM (inactive)
- GI50 (M14): > 100 µM (inactive)
- GI50 (NCI-H23): > 100 µM (inactive)
- GI50 (OVCAR-3): > 100 µM (inactive)
- GI50 (OVCAR-5): > 100 µM (inactive)
- GI50 (OVCAR-8): > 100 µM (inactive)
- GI50 (SNB-19): > 100 µM (inactive)
- GI50 (SW-620): > 100 µM (inactive)
- GI50 (UACC-257): > 100 µM (inactive)
- GI50 (UACC-62): > 100 µM (inactive)

SMILES: CSc1nc(NC2OC(COC(C)=O)C(OC(C)=O)C(OC(C)=O)C2OC(C)=O)c(-c2csc(N)n2)c(=O)n1C (stereo unspecified)
- GI50 (786-0): 18.5 µM (inactive)
- GI50 (A549): 43.4 µM (inactive)
- GI50 (HCT-116): 31 µM (inactive)
- GI50 (HCT-15): 97.1 µM
- GI50 (HL-60): > 100 µM (inactive)
- GI50 (HOP-92): 23.5 µM (inactive)
- GI50 (HT-29): > 100 µM (inactive)
- GI50 (LOX IMVI): 93.3 µM (inactive)
- GI50 (M14): 39.1 µM (inactive)
- GI50 (NCI-H23): 39.3 µM (inactive)
- GI50 (OVCAR-3): 54 µM (inactive)
- GI50 (OVCAR-5): > 100 µM (inactive)
- GI50 (OVCAR-8): 26.1 µM (inactive)
- GI50 (SNB-19): 56.6 µM (inactive)
- GI50 (SW-620): > 100 µM (inactive)
- GI50 (UACC-257): 32.9 µM (inactive)
- GI50 (UACC-62): 26.1 µM (inactive)

SMILES: CN(C)C(=S)/N=c1\ss/c(=N\C(=S)N(C)C)n1-c1ccc(Cl)c(Cl)c1
- GI50 (786-0): > 100 µM (inactive)
- GI50 (A549): > 100 µM (inactive)
- GI50 (HCC 2998): > 100 µM (inactive)
- GI50 (HCT-116): > 100 µM (inactive)
- GI50 (HCT-15): > 100 µM
- GI50 (HL-60): > 100 µM (inactive)
- GI50 (HT-29): > 100 µM (inactive)
- GI50 (LOX IMVI): > 100 µM (inactive)
- GI50 (M14): > 100 µM (inactive)
- GI50 (NCI-H23): > 100 µM (inactive)
- GI50 (OVCAR-3): > 100 µM (inactive)
- GI50 (OVCAR-5): > 100 µM (inactive)
- GI50 (OVCAR-8): > 100 µM (inactive)
- GI50 (SNB-19): > 100 µM (inactive)
- GI50 (SW-620): > 100 µM (inactive)
- GI50 (UACC-257): > 100 µM (inactive)
- GI50 (UACC-62): 30.9 µM (inactive)

SMILES: O=C(c1ccccn1)c1nc(-c2ccc(Cl)c(Cl)c2)nc2ccc(Cl)cc12
- GI50 (786-0): 44.6 µM (inactive)
- GI50 (A549): 41.6 µM (inactive)
- GI50 (HCC 2998): > 100 µM (inactive)
- GI50 (HCT-116): 15.5 µM (inactive)
- GI50 (HCT-15): 39.2 µM
- GI50 (HL-60): > 100 µM (inactive)
- GI50 (HT-29): > 100 µM (inactive)
- GI50 (M14): > 100 µM (inactive)
- GI50 (NCI-H23): 20.3 µM (inactive)
- GI50 (OVCAR-3): 42.7 µM (inactive)
- GI50 (OVCAR-5): > 100 µM (inactive)
- GI50 (OVCAR-8): > 100 µM (inactive)
- GI50 (SW-620): > 100 µM (inactive)
- GI50 (UACC-257): > 100 µM (inactive)
- GI50 (UACC-62): 39.2 µM (inactive)
